Data: patent US7910559B2, “Decladinosyl-macrolides with anti-inflammatory activity” (GlaxoSmithKline istrazivacki centar Zagreb d.o.o., priority 2005, dated 2011)
Where two headings read alike, the source gives them in different places.

Legend:
Type in all cases: cell-based
human IL-8 = assay: Inhibition of IL-8 production by stimulated human peripheral blood leukocytes in vitro (ELISA); conditions: Homo sapiens, Leukocyte, PBL, read-out: Percentage of inhibition of IL-8 production; for inhibition at 10 µM: compound 10 μM; for inhibition at 50 µM: compound 50 μM
Procedure: (§1) Substances, used in in vitro experiments, were dissolved in dimethyl sulfoxide (DMSO) (Kemika, Croatia) at concentrations of 50 mM and 10 mM and were further diluted to the final concentrations of […] in 1 mL Dulbecco's modified Eagle medium (DMEM) supplemented with 1% heat inactivated fetal bovine serum (FBS), 1% glutamax, 50 U/ml penicillin, 50 μg/ml streptomycin and 2.5 μg/mL Fungizone (amphotericin B). Media and all media supplements were purchased from Gibco, Australia, except FBS that was from Sigma, USA.
(§2) Peripheral blood leukocytes (PBL) were obtained from venous blood of healthy volunteers by sedimentation on 2% dextran T-500 (Amersham Biosciences, USA) and subsequent centrifugations of leukocyte-rich plasma.
(§3) Peripheral blood leukocytes (PBL), isolated as described above, were seeded in a 48-well plate at a concentration of 3-5×10^6 cell per well in culture medium consisting of RPMI 1640 medium (Institute of Immunology, Croatia) supplemented with 10% heat-inactivated fetal calf serum (FCS, Biowhittaker, USA), 100 U/ml penicillin (Gibco, Australia), 100 μg/ml streptomycin (Gibco, Australia) and 2 mM L-glutamine (Gibco, Australia), and preincubated with the tested compounds for 2 h at 37° C., in an atmosphere of 5% CO2, and 90% humidity. Afterwards, stimuli (Sigma, USA) were added to a final concentration of 2 μg/mL lipopolysaccharide (LPS), 1 μg/mL phorbol 12-myristate 13-acetate (PMA) or 120 μg/mL zymosan. Samples were incubated overnight under conditions described above. At the end of incubation supernatants were transferred to eppendorf tubes and centrifuged for 10 min at 1500 g. Concentrations of human TNF-α, IL-1β, IL-6 and IL-8 were determined in cell supernatants by sandwich ELISA, using capture and detection antibodies (R&D, USA) according to manufacturer's recommendations.
(§4) Inhibition (as percentage) was calculated using the following formula: % inhibition=(1−concentration of cytokines in sample/concentration of cytokines in positive control)×100 where “positive control” refers to stimulated samples not treated with substances.

human IL-6 = assay: Inhibition of IL-6 production by stimulated human peripheral blood leukocytes in vitro (ELISA); conditions: Homo sapiens, Leukocyte, PBL, read-out: Percentage of inhibition of IL-6 production; for inhibition at 10 µM: compound 10 μM; for inhibition at 50 µM: compound 50 μM
Procedure: as §1, §2, §3, §4

Hep G2 = conditions: human, 24 h
Procedure: (§5) Anti-inflammatory activity of compounds, i.e. observed inhibition of cytokine production and inhibition of proliferation in vitro, is not a consequence of their cytotoxicity.
(§6) Measurement of the succinate dehydrogenase activity in living cells was performed in order to assess the cytotoxicity of compounds of the invention. Cells were cultured for 24 hours in RPMI medium as described above at 37° C., in the presence of the tested compounds at concentrations of 50 μM and 12.5 μM. Afterwards, MTT [3-(4,5-dimethylthiazole-2-yl)-2,5-diphenyl tetrazolium bromide] (Promega, USA) as detection reagent was added and incubated for 0.5-2 hours. The amount of produced MTT-Formazan was determined spectrophotometrically at 490 nm (Mosmann, J. Immunol. Methods, 1983, 65: 55-63).
(§7) Percentage of viable cells was calculated using the following formula: % viable cells=[…]

A549 = conditions: human, 24 h
Procedure: as §5, §6, §7

THP-1 = conditions: human, 24 h
Procedure: as §5, §6, §7

human IL-1β = assay: Inhibition of IL-1β production by stimulated human peripheral blood leukocytes in vitro (ELISA); conditions: Homo sapiens, Leukocyte, PBL, read-out: Percentage of inhibition of IL-1β production; for inhibition at 10 µM: compound 10 μM; for inhibition at 50 µM: compound 50 μM
Procedure: as §1, §2, §3, §4

human TNF-α = assay: Inhibition of TNF-α production by stimulated human peripheral blood leukocytes in vitro (ELISA); conditions: Homo sapiens, Leukocyte, PBL, read-out: Percentage of inhibition of TNF-α production; for inhibition at 10 µM: compound 10 μM; for inhibition at 50 µM: compound 50 μM
Procedure: as §1, §2, §3, §4

CC[C@H]1OC(=O)[C@H](C)[C@@H](OC(=O)CCN2CCCN(CCCN3CCCC3)CC2)[C@H](C)[C@@H](O[C@@H]2O[C@H](C)C[C@H](N(C)C)[C@H]2O)[C@](C)(OC)C[C@@H](C)C(=O)N[C@H](C)[C@@H](O)[C@]1(C)O [Example 24, 6-O-Methyl-3-O-decladinosyl-3-O{3-[4-(3-Pyrrolidin-1-yl-propyl)-[1,4]diazepan-1-yl]-propionyl}-9a-aza-9a-homoerythromycin A]
inhibition at 10 µM (human IL-8; LPS stimulation): 0%
inhibition at 50 µM (human IL-8; LPS stimulation): 94%
inhibition at 10 µM (human IL-8; PMA stimulation): 3%
inhibition at 50 µM (human IL-8; PMA stimulation): 81%
inhibition at 10 µM (human IL-8; zymosan stimulation): 0%
inhibition at 50 µM (human IL-8; zymosan stimulation): 92%
inhibition at 10 µM (human IL-6; LPS stimulation): 8%
inhibition at 50 µM (human IL-6; LPS stimulation): 98%
inhibition at 10 µM (human IL-6; PMA stimulation): 48%
inhibition at 50 µM (human IL-6; PMA stimulation): 89%
inhibition at 10 µM (human IL-6; zymosan stimulation): 33%
inhibition at 50 µM (human IL-6; zymosan stimulation): 100%
Percentage of viable cells after treatment (Hep G2; 12.5 μM): >95%
Percentage of viable cells after treatment (Hep G2; 50 μM): 100%
Percentage of viable cells after treatment (A549; 12.5 μM): >90%
Percentage of viable cells after treatment (A549; 50 μM): >90%
Percentage of viable cells after treatment (THP-1; 12.5 μM): 100%
Percentage of viable cells after treatment (THP-1; 50 μM): 100%
inhibition at 10 µM (human IL-1β; LPS stimulation): 65%
inhibition at 50 µM (human IL-1β; LPS stimulation): 98%
inhibition at 10 µM (human IL-1β; PMA stimulation): 84%
inhibition at 50 µM (human IL-1β; PMA stimulation): 98%
inhibition at 10 µM (human IL-1β; zymosan stimulation): 70%
inhibition at 50 µM (human IL-1β; zymosan stimulation): 100%
inhibition at 10 µM (human TNF-α; LPS stimulation): 0%
inhibition at 50 µM (human TNF-α; LPS stimulation): 91%
inhibition at 10 µM (human TNF-α; PMA stimulation): 65%
inhibition at 50 µM (human TNF-α; PMA stimulation): 68%
inhibition at 10 µM (human TNF-α; zymosan stimulation): 0%
inhibition at 50 µM (human TNF-α; zymosan stimulation): 92%

CC[C@H]1OC(=O)[C@H](C)[C@@H](OC(=O)CCN2CCN(CCN(CC)CC)CC2)[C@H](C)[C@@H](O[C@@H]2O[C@H](C)C[C@H](N(C)C)[C@H]2O)[C@](C)(OC)C[C@@H](C)C(=O)N[C@H](C)[C@@H](O)[C@]1(C)O [Example 18, 6-O-Methyl-3-O-decladinosyl-3-O-{3-[4-(2-Diethylamino-ethyl)-piperazin-1-yl]-propionyl}-9a-aza-9a-homoerythromycin A]
inhibition at 10 µM (human IL-8; LPS stimulation): 1%
inhibition at 50 µM (human IL-8; LPS stimulation): 30%
inhibition at 10 µM (human IL-8; PMA stimulation): 16%
inhibition at 50 µM (human IL-8; PMA stimulation): 13%
inhibition at 10 µM (human IL-8; zymosan stimulation): 3%
inhibition at 50 µM (human IL-8; zymosan stimulation): 21%
inhibition at 10 µM (human IL-6; LPS stimulation): 9%
inhibition at 50 µM (human IL-6; LPS stimulation): 50%
inhibition at 10 µM (human IL-6; PMA stimulation): 53%
inhibition at 50 µM (human IL-6; PMA stimulation): 47%
inhibition at 10 µM (human IL-6; zymosan stimulation): 18%
inhibition at 50 µM (human IL-6; zymosan stimulation): 47%
Percentage of viable cells after treatment (Hep G2; 12.5 μM): >95%
Percentage of viable cells after treatment (Hep G2; 50 μM): 100%
Percentage of viable cells after treatment (A549; 12.5 μM): 100%
Percentage of viable cells after treatment (A549; 50 μM): 100%
Percentage of viable cells after treatment (THP-1; 12.5 μM): 100%
Percentage of viable cells after treatment (THP-1; 50 μM): 100%
inhibition at 10 µM (human IL-1β; LPS stimulation): 44%
inhibition at 50 µM (human IL-1β; LPS stimulation): 73%
inhibition at 10 µM (human IL-1β; PMA stimulation): 66%
inhibition at 50 µM (human IL-1β; PMA stimulation): 87%
inhibition at 10 µM (human IL-1β; zymosan stimulation): 32%
inhibition at 50 µM (human IL-1β; zymosan stimulation): 76%
inhibition at 10 µM (human TNF-α; LPS stimulation): 7%
inhibition at 50 µM (human TNF-α; LPS stimulation): 0%
inhibition at 10 µM (human TNF-α; PMA stimulation): 50%
inhibition at 50 µM (human TNF-α; PMA stimulation): 82%
inhibition at 10 µM (human TNF-α; zymosan stimulation): 12%
inhibition at 50 µM (human TNF-α; zymosan stimulation): 0%

C=CC(=O)O[C@H]1[C@H](C)[C@@H](O[C@@H]2O[C@H](C)C[C@H](N(C)C)[C@H]2O)[C@](C)(OC)C[C@@H](C)C(=O)[C@H](C)[C@@H](O)[C@](C)(O)[C@@H](CC)OC(=O)[C@@H]1C [Example 4, 3-O-Propenoyl-3-O-decladinosyl-6-O-methyl-erythromycin A]
inhibition at 10 µM (human IL-8; LPS stimulation): 29%
inhibition at 50 µM (human IL-8; LPS stimulation): 100%
inhibition at 10 µM (human IL-8; PMA stimulation): 55%
inhibition at 50 µM (human IL-8; PMA stimulation): 90%
inhibition at 10 µM (human IL-8; zymosan stimulation): 10%
inhibition at 50 µM (human IL-8; zymosan stimulation): 100%
inhibition at 10 µM (human IL-6; LPS stimulation): 37%
inhibition at 50 µM (human IL-6; LPS stimulation): 100%
inhibition at 10 µM (human IL-6; PMA stimulation): 96%
inhibition at 50 µM (human IL-6; PMA stimulation): 100%
inhibition at 10 µM (human IL-6; zymosan stimulation): 55%
inhibition at 50 µM (human IL-6; zymosan stimulation): 100%
Percentage of viable cells after treatment (Hep G2; 12.5 μM): >85%
Percentage of viable cells after treatment (Hep G2; 50 μM): >95%
Percentage of viable cells after treatment (A549; 12.5 μM): >95%
Percentage of viable cells after treatment (A549; 50 μM): >95%
Percentage of viable cells after treatment (THP-1; 12.5 μM): 100%
Percentage of viable cells after treatment (THP-1; 50 μM): 100%
inhibition at 10 µM (human IL-1β; LPS stimulation): 75%
inhibition at 50 µM (human IL-1β; LPS stimulation): 100%
inhibition at 10 µM (human IL-1β; PMA stimulation): 97%
inhibition at 50 µM (human IL-1β; PMA stimulation): 100%
inhibition at 10 µM (human IL-1β; zymosan stimulation): 61%
inhibition at 50 µM (human IL-1β; zymosan stimulation): 100%
inhibition at 10 µM (human TNF-α; LPS stimulation): 0%
inhibition at 50 µM (human TNF-α; LPS stimulation): 100%
inhibition at 10 µM (human TNF-α; PMA stimulation): 69%
inhibition at 50 µM (human TNF-α; PMA stimulation): 100%
inhibition at 10 µM (human TNF-α; zymosan stimulation): 0%
inhibition at 50 µM (human TNF-α; zymosan stimulation): 100%
